Consider four compounds from patent publication US6916923B2 (Hoffmann-La Roche Inc., priority 1999, dated 2005).

Molecules are shown by their SMILES. Bounds are passed on as bounds.

The term melting point denotes the temperature of the solid-liquid transition. As for `Cc1cnc2c(cc(NS(C)(=O)=O)c3nncc32)c(-c2ccccc2Cl)n1` [Compound C9, N-(3-methyl-5-(2-chlorophenyl)-pyrazolo[3,4][1,4]benzodiazepin-7-yl)-methanesulfonamide], the melting point lay in the range of 196 to 198 °C.

On to `NC(=O)c1cnc2c(cc([N+](=O)[O-])c3nncc32)c(-c2ccccc2Cl)n1` [Compound C10, 5-(2-chlorophenyl)-7-nitro-pyrazolo[3,4][1,4]benzodiazepine-3-carboxamide], for which the melting point is more than 340 °C.

With `N#Cc1cnc2c(cc([N+](=O)[O-])c3nncc32)c(-c2ccccc2Cl)n1` [Compound C18, 5-(2-chlorophenyl)-7-nitro-pyrazolo[3,4][1,4]benzodiazepine-3-carbonitrile], the melting point lay within 193 to 196 °C.

`Cc1cnc2c(cc(C(N)=O)c3nncc32)c(-c2ccccc2F)n1` [Compound C19, 3-methyl-5-(2-fluorophenyl)-pyrazolo[3,4][1,4]benzodiazepine-7-carboxamide]: the melting point is 323 to 324 °C.
